Test results reported in patent US9540376B2, “Hexahydrodiazepinoquinolines carrying a substituted alkyl radical” (priority 2014, dated 2017).

Columns and labels:
Assay type in all cases: cell-based
[1] = target: T1, 5-HT2C receptor (Homo sapiens, UniProt P28335); experiment: Human 5-HT2C functional assay (beta-arrestin2 recruitment, U2OS_HTR2C_β-Arrestin cells); details: for EC50: potency in functional assay, beta-arrestin2 recruitment, 1.5 h incubation; for Emax: read-out: % efficacy (5-HT2C), relative efficacy vs 10 μM 5-HT or maximal 5-HT effect (100%); for % efficacy (5-HT2C): relative efficacy vs 10 μM 5-HT or maximal 5-HT effect (100%)
T1 construct: host or cells: U2OS
Protocol: 1. Human 5-HT2C Functional Assay
The functional activity of compounds of formula I was assayed by incubation with U2OS_HTR2C_β-Arrestin cells (DiscoverX, 93-0289C3) to induce beta-arrestin2 recruitment to the 5-HT2C receptor. The agonist-induced recruitment and proximity of the receptor and beta-arrestin2 leads to complementation and formation of active β-galactosidase. The enzyme complementation results in enzyme activity, which is measured following the termination of the agonist incubation using DiscoveRx's detection reagent, which contains a chemiluminescent substrate which produces a high intensity signal. Cells were plated and a medium-change to a 1% serum containing medium was performed 24 h later. The next day, test compounds were added and incubated for 1.5 h before addition of detection reagent.
The response produced was measured and compared with the response produced by 10 [mu]M 5-HT or the maximal effect induced by 5-HT (defined as 100%) to which it was expressed as a percentage response (relative efficacy).

[2] = target: T2, human 5-HT2A receptor (Homo sapiens, UniProt P28223); experiment: Human 5-HT2A functional assay (calcium mobilisation in CHO-K1 cells); details: for EC50: potency in functional assay, agonism (first addition), calcium mobilisation; for Emax: CHO-K1, read-out: % efficacy (5-HT2A); for Selectivity (based on agonism) EC50 5-HT2A/EC50 5-HT2C: ratio EC50 5-HT2A/EC50 5-HT2C
T2 construct: expressed in transfected cells; host or cells: CHO-K1
Protocol: 2. Human 5-HT2A Functional Assay
Cells were seeded into sterile black 384-well plates with clear bottom at 25,000 cells/well in a volume of 25 μl and grown for 5-6 hours at 37° C., in 5% CO2 in tissue culture medium (“Ultra CHO” by LONZA), containing 1% dialysed FCS and 50 μg/ml gentamicin (Invitrogen). After this incubation, medium was replaced by a serum free version of the same tissue culture medium followed by incubation overnight at 37° C. and in 5% CO2. Cells were then loaded with a fluorescent calcium-sensitive dye in the presence of 0.07% probenecid for an hour at 37° C., according to the manufacturer's protocol (Ca5-Assay Kit, Molecular Devices), followed by an additional 60 min incubation at room temperature. […] The relative efficacy of the compounds was calculated as a percentage of the maximal effect induced by serotonin alone (defined as 100%). To determine EC50/IC50 values, concentration-response curves were fitted using a four-parameter logistic equation (IDBS Biobook™). Kb values were calculated from IC50 values, according to Cheng & Prusoff.

[3] = target: T3, human 5-HT2B receptor (Homo sapiens, UniProt P41595); experiment: Human 5-HT2B functional assay (calcium mobilisation in CHO-FlpIn cells); details: for EC50: potency in functional assay, agonism (first addition), calcium mobilisation; for Selectivity (based on agonism) EC50 5-HT2B/EC50 5-HT2C: ratio EC50 5-HT2B/EC50 5-HT2C; for Emax: read-out: % efficacy (5-HT2B), relative efficacy vs maximal effect of serotonin alone (100%)
T3 construct: expressed in transfected cells; host or cells: CHO-FlpIn
Protocol: 3. Human 5-HT2B Functional Assay
Cells were seeded into sterile black 384-well plates with clear bottom at 30,000 cells/well in a volume of 25 μl and grown overnight at 37° C., in 5% CO2 in tissue culture medium (“CHO-S-SFM II” by Invitrogen), containing 1% dialysed FCS and 50 μg/ml gentamicin (Invitrogen). On the next morning, medium was replaced by a serum free version of the same tissue culture medium for a further incubation for 4 hours at 37° C. and in 5% CO2. Cells were then loaded with a fluorescent calcium-sensitive dye in the presence of 0.07% probenecid for an hour at 37° C., according to the manufacturer's protocol (Ca5-Assay Kit, Molecular Devices), followed by an additional 60 min incubation at room temperature. Serial compound dilutions (final concentrations of 10^−10 to 10^−5M, prepared in HBSS+50 mM HEPES) were first added to the cells alone (“first addition” to assess agonism on the 5-HT2B receptor), then after 8 min, serotonin was added to the same wells at a final concentration of 10^−8 M (“second addition” to see potential antagonistic effect) and the maximal calcium response was determined using a FLIPR® Tetra instrument (Molecular Devices) in each of the two steps. The relative efficacy of the compounds was calculated as a percentage of the maximal effect induced by serotonin alone (defined as 100%). To determine EC50/IC50 values, concentration-response curves were fitted using a four-parameter logistic equation (IDBS Biobook™). Kb values were calculated from IC50 values, according to Cheng & Prusoff.

T3 sequence (P41595 whole entry): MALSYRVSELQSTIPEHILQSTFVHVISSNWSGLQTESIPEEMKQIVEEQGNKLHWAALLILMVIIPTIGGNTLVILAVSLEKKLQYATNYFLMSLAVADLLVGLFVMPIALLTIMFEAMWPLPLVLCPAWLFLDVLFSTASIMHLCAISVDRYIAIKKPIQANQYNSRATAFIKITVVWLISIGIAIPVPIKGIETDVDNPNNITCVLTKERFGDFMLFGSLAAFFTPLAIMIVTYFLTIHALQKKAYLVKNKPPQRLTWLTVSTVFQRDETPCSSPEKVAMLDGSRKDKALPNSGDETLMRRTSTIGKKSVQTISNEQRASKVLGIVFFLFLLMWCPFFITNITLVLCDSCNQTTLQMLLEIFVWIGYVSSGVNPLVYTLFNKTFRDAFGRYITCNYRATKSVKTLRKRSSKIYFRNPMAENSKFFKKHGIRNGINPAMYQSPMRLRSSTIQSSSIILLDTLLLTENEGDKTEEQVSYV
T1 sequence (P28335 33-458): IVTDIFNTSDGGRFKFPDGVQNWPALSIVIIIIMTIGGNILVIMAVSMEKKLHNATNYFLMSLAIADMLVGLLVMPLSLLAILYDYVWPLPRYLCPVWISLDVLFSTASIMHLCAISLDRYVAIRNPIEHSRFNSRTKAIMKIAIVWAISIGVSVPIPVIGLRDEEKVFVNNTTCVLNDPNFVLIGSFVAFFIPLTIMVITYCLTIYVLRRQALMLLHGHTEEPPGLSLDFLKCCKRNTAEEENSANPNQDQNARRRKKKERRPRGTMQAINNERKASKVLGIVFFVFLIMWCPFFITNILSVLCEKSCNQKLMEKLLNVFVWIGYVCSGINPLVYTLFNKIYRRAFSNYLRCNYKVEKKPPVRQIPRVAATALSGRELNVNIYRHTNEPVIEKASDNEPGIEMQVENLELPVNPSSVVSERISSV
T1 sequence (P32121 whole entry partner): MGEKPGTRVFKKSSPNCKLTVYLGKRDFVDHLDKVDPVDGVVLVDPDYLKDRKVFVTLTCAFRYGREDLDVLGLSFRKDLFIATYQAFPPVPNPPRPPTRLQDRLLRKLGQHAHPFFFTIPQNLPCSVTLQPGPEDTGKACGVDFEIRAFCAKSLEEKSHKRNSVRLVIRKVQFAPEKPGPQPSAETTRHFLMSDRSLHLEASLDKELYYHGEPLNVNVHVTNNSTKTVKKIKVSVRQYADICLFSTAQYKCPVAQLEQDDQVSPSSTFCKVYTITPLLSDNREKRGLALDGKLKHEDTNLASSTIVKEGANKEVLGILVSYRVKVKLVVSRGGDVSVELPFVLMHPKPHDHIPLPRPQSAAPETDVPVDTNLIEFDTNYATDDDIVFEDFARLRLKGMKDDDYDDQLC
T2 sequence (P28223 whole entry): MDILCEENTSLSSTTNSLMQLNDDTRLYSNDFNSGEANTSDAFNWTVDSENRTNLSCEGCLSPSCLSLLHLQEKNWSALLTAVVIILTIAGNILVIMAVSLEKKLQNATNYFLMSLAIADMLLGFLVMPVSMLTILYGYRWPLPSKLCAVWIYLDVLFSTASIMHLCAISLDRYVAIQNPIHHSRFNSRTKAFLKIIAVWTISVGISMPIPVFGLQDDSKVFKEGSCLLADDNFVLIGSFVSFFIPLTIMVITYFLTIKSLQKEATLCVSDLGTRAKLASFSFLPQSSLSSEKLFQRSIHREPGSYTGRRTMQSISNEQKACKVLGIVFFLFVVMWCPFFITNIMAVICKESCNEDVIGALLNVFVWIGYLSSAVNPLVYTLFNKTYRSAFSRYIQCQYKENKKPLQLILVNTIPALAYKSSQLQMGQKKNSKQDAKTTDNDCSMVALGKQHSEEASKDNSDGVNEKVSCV

| SMILES | EC50 [1] [nM] | Emax [1] [%] | EC50 [2] [nM] | EC50 [3] [nM] | further results |
| --- | --- | --- | --- | --- | --- |
| CC1CNCc2cccc3c2N1CCC3C(F)(F)F (single isomer, unassigned) [Isomer 4.A, 4-methyl-8-(trifluoromethyl)-2,3,4,6,7,8-hexahydro-1H-[1,4]diazepino[6,7,1-ij]quinoline] | < 20 | 101 | > 10000 | > 10000 | – |
| CC1CNCc2cccc3c2N1CCC3C(F)(F)F (single isomer, unassigned) [Isomer 4.B, 4-methyl-8-(trifluoromethyl)-2,3,4,6,7,8-hexahydro-1H-[1,4]diazepino[6,7,1-ij]quinoline] | 20 to 200 | – | – | > 10000 | % efficacy (5-HT2C) ([1]; listed as 4.B): 87%; EC50 ([2]; listed as 4.B): > 10000 nM |
| CC1CNCc2cccc3c2N1CCC3C(F)(F)F (single isomer, unassigned) [Isomer 4.C, 4-methyl-8-(trifluoromethyl)-2,3,4,6,7,8-hexahydro-1H-[1,4]diazepino[6,7,1-ij]quinoline] | < 20 | – | 20 to 200 | 20 to 200 | % efficacy (5-HT2C) ([1]; listed as 4.C): 101%; Emax [2]: 24%; Selectivity (based on agonism) EC50 5-HT2A/EC50 5-HT2C [2]: 2; Selectivity (based on agonism) EC50 5-HT2B/EC50 5-HT2C ([3]; listed as 4.C): 12; Emax [3]: 44% |
| CC1CNCc2cccc3c2N1CCC3C(F)(F)F (single isomer, unassigned) [Isomer 4.D, 4-methyl-8-(trifluoromethyl)-2,3,4,6,7,8-hexahydro-1H-[1,4]diazepino[6,7,1-ij]quinoline] | 200 to 1000 | – | – | 200 to 1000 | % efficacy (5-HT2C) ([1]; listed as 4.D): 86%; EC50 ([2]; listed as 4.D): > 10000 nM; Selectivity (based on agonism) EC50 5-HT2B/EC50 5-HT2C ([3]; listed as 4.D): 2; % efficacy (5-HT2B) ([3]; relative efficacy vs maximal effect of serotonin alone (100%)): 30% |
| CC1CNCc2cccc3c2N1CCC3C(F)F (single isomer, unassigned) [Isomer 5.A, 8-(difluoromethyl)-4-methyl-2,3,4,6,7,8-hexahydro-1H-[1,4]diazepino[6,7,1-ij]quinoline] | < 20 | – | < 20 | 200 to 1000 | % efficacy (5-HT2C) ([1]; listed as 5.A): 109%; Emax [2]: 21%; Selectivity (based on agonism) EC50 5-HT2A/EC50 5-HT2C [2]: 0.5; Selectivity (based on agonism) EC50 5-HT2B/EC50 5-HT2C [3]: 20; Emax [3]: 36% |
| CC1CNCc2cccc3c2N1CCC3C(F)F (single isomer, unassigned) [Isomer 5.B, 8-(difluoromethyl)-4-methyl-2,3,4,6,7,8-hexahydro-1H-[1,4]diazepino[6,7,1-ij]quinoline] | 20 to 200 | – | > 10000 | > 10000 | % efficacy (5-HT2C) ([1]; listed as 5.B): 110% |
| CC1CNCc2cccc3c2N1CCC3C(F)F (single isomer, unassigned) [Isomer 5.C, 8-(difluoromethyl)-4-methyl-2,3,4,6,7,8-hexahydro-1H-[1,4]diazepino[6,7,1-ij]quinoline] | 200 to 1000 | – | – | > 10000 | % efficacy (5-HT2C) ([1]; listed as 5.C): 89%; EC50 ([2]; listed as 5.C): > 10000 nM |
| CC1CNCc2cccc3c2N1CCC3C(F)F (single isomer, unassigned) [Isomer 5.D, 8-(difluoromethyl)-4-methyl-2,3,4,6,7,8-hexahydro-1H-[1,4]diazepino[6,7,1-ij]quinoline] | 200 to 1000 | – | – | > 10000 | % efficacy (5-HT2C) ([1]; listed as 5.D): 84%; EC50 ([2]; listed as 5.D): > 10000 nM |
| CC1CNCc2cccc3c2N1CCC3C(F)(F)F (centres unmarked) [Example 4, 4-Methyl-8-(trifluoromethyl)-2,3,4,6,7,8-hexahydro-1H-[1,4]diazepino[6,7,1-ij]quinoline] | 20 to 200 | 104 | > 10000 | > 10000 | – |
| CC1CNCc2cccc3c2N1CCC3C(F)F (centres unmarked) [Example 5, 8-(Difluoromethyl)-4-methyl-2,3,4,6,7,8-hexahydro-1H-[1,4]diazepino[6,7,1-ij]quinoline] | 20 to 200 | 95 | > 10000 | > 10000 | – |
| CC1CNCc2cccc3c2N1CCC3CF (centres unmarked) [Example 7, 8-(Fluoromethyl)-4-methyl-2,3,4,6,7,8-hexahydro-1H-[1,4]diazepino[6,7,1-ij]quinoline] | 20 to 200 | 107 | > 10000 | > 10000 | – |
| CCOCC1CCN2c3c(cccc31)CNCC2C (centres unmarked) [Example 8, 8-(Ethoxymethyl)-4-methyl-2,3,4,6,7,8-hexahydro-1H-[1,4]diazepino[6,7,1-ij]quinoline] | 200 to 1000 | 93 | > 10000 | > 10000 | – |
| COCC1CCN2c3c(cccc31)CNCC2C (centres unmarked) [Example 9, 8-(Methoxymethyl)-4-methyl-2,3,4,6,7,8-hexahydro-1H-[1,4]diazepino[6,7,1-ij]quinoline] | 200 to 1000 | 82 | > 10000 | > 10000 | – |
